{"source": "patent US20200222347A1", "about": "“ANTIMICROBIALS AND METHODS OF USE THEREOF” (priority 2013, published 2020)", "key": {"[1]": {"system": "Staphylococcus aureus ATCC 33591 (MRSA) biofilm", "assay": "Drip flow biofilm reactor, PCA coated cloth and sintered mesh, Example 7", "conditions": "30% concentration of PCA (FIG. 36)"}, "[2]": {"system": "normal human skin bacterial resident flora", "assay": "Human skin disinfection study, Loma Linda, Phase IV", "format": "in vivo", "conditions": "for no growth cultures results after treatment, anaerobic / no growth cultures results after treatment, Aerobic: Phase IV, two applications", "protocol": "Method: The variations in materials and methods in this phase were based upon results of the previous phases. They included changes in the solution, the method of dissolving the PCA, the timing of skin application, plus using two applications to simulate the present day recommendations of surgical skin preparation.\nThe method placed the 20 grams of ground PCA in sterile container with volume markers. Then added 85 ml of 91% isopropyl alcohol; warm and shake. […] A repeat of warming and shaking was instituted. The container was filled to 100 ml, warm and repeated the shaking. It took perhaps 15 to 20 minutes for the ground crystals to dissolve.\nAn area was marked at 4 corners on the anterior axilla area of both shoulders. There was a topical reagent application. After 5 minutes a second application was made. The control group was again Chloroprep®. The experimental side was applied with manual motion and pressure on a sterile sponge soaked with the PCA solution. The subjects put hands on head for 10 minutes and then 10 minutes of moving arms around. Culture #1 was harvested with scraping at 20 minutes post 2nd application. Subjects rested their arms at side for 40 minutes which is 60 minutes after the first application and 40 minutes after culture #1. A second culture is taken with scraping. The post application cultures were taken of each shoulder skin area with scraping with back side of a sterile surgical knife blade to maximize the yield."}, "[3]": {"system": "P. aeruginosa (ACTA 9027)", "format": "in vivo"}, "P. aeruginosa": {"system": "P. aeruginosa", "assay": "Kirby-Bauer disc diffusion antimicrobial susceptibility", "format": "cell-based, Pseudomonas aeruginosa", "conditions": "100 mM, carrier water; 18-24 hours for aerobes"}, "[4]": {"system": "P. aeruginosa (ACTA 27853)", "format": "in vivo", "conditions": "for bacterial burden of P. aeruginosa in skin tissue: 25 mM topical in water"}, "C difficile": {"system": "C difficile", "assay": "Kirby-Bauer disc diffusion antimicrobial susceptibility", "format": "cell-based", "conditions": "100 mM, carrier water; 48 hours for anaerobes"}, "K. pneumoniae": {"system": "K. pneumoniae", "assay": "Kirby-Bauer disc diffusion antimicrobial susceptibility", "format": "cell-based", "conditions": "100 mM, carrier water; 18-24 hours for aerobes"}, "IGF-1": {"system": "IGF-1", "assay": "Local growth hormones in tape stripped mouse skin wound by ELISA (FIG. 11, FIG. 13, Example 5)", "format": "in vivo, mice", "protocol": "(§1) Four different conditions were used: mice had back skin tape stripped and the stripped site (wound) was infected with P. aeruginosa; mice had back skin stripped and were not infected, mice had taped stripped, infected and treated with PCA, mice were tape stripped, uninfected, and treated with PCA. When used, the PCA test reagent was applied topically in an aqueous solution on the stripped site at two hours and 24 hours.\n(§2) The testing reagents consisted of and PCA formulated at one dose, 25 mM, in an aqueous solution. Levels of IGF-1, TGF-β, and EGF levels in the skin tissue at 48 hours were measured by ELISA. There were two control groups; the stripped skin and the stripped skin and infected."}, "EGF": {"system": "EGF", "assay": "Local growth hormones in tape stripped mouse skin wound by ELISA (FIG. 11, FIG. 13, Example 5)", "format": "in vivo, mice", "protocol": "as §1, §2"}, "TGF-β": {"system": "TGF-β", "assay": "Local growth hormones in tape stripped mouse skin wound by ELISA (FIG. 11, FIG. 13, Example 5)", "format": "in vivo, mice", "protocol": "as §1, §2"}, "[5]": {"system": "normal human skin bacterial resident flora", "assay": "Human skin disinfection study, Loma Linda, Phase 1", "format": "in vivo", "protocol": "A randomized double blinded study was performed at Loma Linda Medical School. It involved 4 phases over two years' time. The methods were as follows:\n[…] […] The controls were Chloroprep (2% Chlorhexidine in 70% isopropyl alcohol) and Betadine (9.0% to 12.0% available iodine in water). Cultures were taken before application and 20 minutes after application. The initial harvest was by a surface swab. Application was by soaked sponge, without force or scrubbing. The second harvest was performed with the back edge of a sterile knife blade scraping with pressure in attempt to maximize the harvest from the deeper sebaceous glands and hair follicles. The specimens were placed in culture media. Bacteriology was performed at WuXiAppTec in Marrietta, Ga."}, "[6]": {"system": "Pseudomonas aeruginosa ATCC9027", "assay": "Paper disc test with water or propylene glycol, Example 10"}, "Legionella 43662": {"system": "Legionella 43662", "format": "cell-based"}, "[7]": {"system": "Staphylococcus aureus ATCC 33591 (MRSA) biofilm", "assay": "Single spray on biofilm on glass slides, time study, Example 8", "conditions": "for CFUs after spray: 30% PCA spray"}, "[8]": {"system": "Pseudomonas Aeruginosa ATCC 700888 biofilm", "assay": "Drip flow biofilm reactor, PCA coated cloth and sintered mesh, Example 7", "format": "cell-based", "description": "The cloth was dried when tested."}, "[9]": {"system": "E. coli, ATTC 8739 and ATCC 43895", "assay": "Kirby-Bauer disc diffusion antimicrobial susceptibility", "format": "cell-based", "conditions": "100 mM, carrier water; 18-24 hours for aerobes"}, "S. aureus 33591 (MRSA)": {"system": "S. aureus 33591 (MRSA)", "assay": "Kirby-Bauer disc diffusion antimicrobial susceptibility", "format": "cell-based, Staphylococcus aureus", "conditions": "100 mM, carrier water; 18-24 hours for aerobes"}, "[10]": {"system": "Staphylococcus epidermidis ATCC 51625 (MRSE)", "assay": "In vitro antimicrobial test (FIG. 32)", "format": "cell-based"}, "[11]": {"conditions": "25 mM at 2 and 24 hours, tape stripped and infected with P. aeruginosa, 48 hours (FIG. 13)"}, "[12]": {"conditions": "1% PCA in water, 20 minutes after application"}}, "note": "“Also recorded” adds a separate entry of the source. Where two headings read alike, the source gives them in different places.", "data": [{"smiles": "O=C(O)c1ccc(O)c(O)c1", "note": "[PCA, Protocatechuic acid]", "values": [{"measurement": "effectiveness against MRSA biofilm", "setting": "[1]", "result": "effective; also recorded: very effective"}, {"measurement": "removal of potential pathogens from skin", "setting": "[2]; Phase IV solution: 20 grams of PCA, 91% isopropyl alcohol, 5 ml of essence of peppermint oil", "result": "effective in removing potential pathogens"}, {"measurement": "no growth cultures results after treatment, anaerobic", "setting": "[2]; 20 minutes", "result": "4/12"}, {"measurement": "no growth cultures results after treatment, Aerobic", "setting": "[2]; 20 minutes, PCA in 91% isopropyl alcohol and essential oil of peppermint", "result": "12/12"}, {"measurement": "no growth cultures results after treatment, Aerobic", "setting": "[2]; 60 minutes", "result": "7/12"}, {"measurement": "no growth cultures results after treatment, anaerobic", "setting": "[2]; 60 minutes", "result": "6/12"}, {"measurement": "most effective concentration for decreasing bacterial burden", "setting": "[3]; of 50, 100 and 200 mM tested, 96 hours", "result": 50, "unit": "mM"}, {"measurement": "bacterial burden in the skin", "setting": "[3]; topical in water, 50, 100 and 200 mM, at two hours and daily for four days, day five, none statistically significant", "result": "decreased the bacterial burden"}, {"measurement": "effectiveness against P. aeruginosa", "setting": "P. aeruginosa", "result": "effective; also recorded: some effectiveness"}, {"measurement": "bacterial burden of P. aeruginosa in skin tissue", "setting": "[4]; 48 and 96 hours", "result": "reduced the bacterial burden"}, {"measurement": "bacterial burden of P. aeruginosa in skin tissue", "setting": "[4]; 48 hours", "result": "significantly decreased; also recorded: effective"}, {"measurement": "dose that was bactericidal on Pseudomonas aeruginosa on taped stripped rodent skin", "setting": "[4]; calculated from 25 mM and applied volume", "result": 0.00038, "unit": "grams"}, {"measurement": "kill of Pseudomonas aeruginosa", "setting": "[4]; in 48 hours, both reagents and dose (PCA 25, 50 mM; C3G 100, 200 mM)", "result": "10,000 fold"}, {"measurement": "action on stripped skin wound of a rodent", "setting": "[4]; topical, various calculated doses, in 48 to 96 hours", "result": "bactericidal"}, {"measurement": "effectiveness against C. difficile (growth inhibition)", "setting": "C difficile", "result": "effective"}, {"measurement": "effectiveness against K. pneumoniae", "setting": "K. pneumoniae", "result": "effective"}, {"measurement": "IGF-1 level in skin tissue", "setting": "IGF-1; [11]", "result": "moderately elevated; also recorded: optimizes the IGF-1 production"}, {"measurement": "local growth hormone level of IGF-1", "setting": "IGF-1; 25 mM, site of the untreated skin wound (FIG. 11A)", "result": "increased"}, {"measurement": "optimal dose to optimize local growth hormones", "setting": "IGF-1; IGF-1, TGF-β and EGF together, rodent skin wound", "result": "Approximately 25 mM"}, {"measurement": "EGF level in skin tissue", "setting": "EGF; [11]", "result": "decreased; also recorded: lowest"}, {"measurement": "local growth hormone level of EGF", "setting": "EGF; 25 mM, site of the untreated skin wound (FIG. 11C)", "result": "increased"}, {"measurement": "TGF-β level in skin tissue", "setting": "TGF-β; [11]", "result": "decreased"}, {"measurement": "local growth hormone level of TGF-Beta", "setting": "TGF-β; 25 mM, site of the untreated skin wound (FIG. 11B)", "result": "increased"}, {"measurement": "anaerobic cultures with no growth", "setting": "[5]; [12]", "result": "6 of 22"}, {"measurement": "subjects with no growth on aerobic culture", "setting": "[5]; [12]", "result": "7 of 22"}, {"measurement": "anaerobic cultures with reduced colony growth", "setting": "[5]; 1% PCA in water, of 22 cultures", "result": 15}, {"measurement": "aerobic cultures with reduced growth", "setting": "[5]; 1% PCA in water, of 22 subjects", "result": 10, "unit": "cultures"}, {"measurement": "effectiveness as skin disinfectant, Phase 1", "setting": "[5]; 20 minutes after application", "result": "partially effective"}, {"measurement": "inhibition of growth under the sample", "setting": "[6]; PPG", "result": "I"}, {"measurement": "zone of inhibition", "setting": "[6]; PPG", "result": 4, "unit": "mm"}, {"measurement": "inhibition of growth under the sample", "setting": "[6]; Water", "result": "I"}, {"measurement": "zone of inhibition", "setting": "[6]; Water", "result": 10, "unit": "mm"}, {"measurement": "effectiveness against Legionella 43662", "setting": "Legionella 43662", "result": "effective"}, {"measurement": "CFUs after spray", "setting": "[7]; after 30 minutes, from 60 million CFUs", "result": 3, "unit": "million"}, {"measurement": "CFUs after spray", "setting": "[7]; after 60 minutes, from 25 million", "result": 2, "unit": "million CFUs"}, {"measurement": "biofilms killed", "setting": "[7]; […], 30 minutes", "result": 90, "unit": "%"}, {"measurement": "effectiveness against Pseudomonas biofilm", "setting": "[8]; 10% concentration of PCA (FIG. 33)", "result": "not as effective"}, {"measurement": "effectiveness against Pseudomonas biofilm", "setting": "[8]; 20% concentration of PCA in 70% isopropyl alcohol, dried coating (FIG. 34)", "result": "effective; also recorded: very effective"}, {"measurement": "effectiveness against E. coli", "setting": "[9]", "result": "effective"}, {"measurement": "effectiveness against S. aureus 33591 (MRSA)", "setting": "S. aureus 33591 (MRSA)", "result": "effective"}, {"measurement": "effectiveness against MRSE ATCC 51625", "setting": "[10]", "result": "effective"}]}]}
